Assays:
[1] = unsuitable for use in human bodies; cited from earlier work
[2] = tested on: umbilical mesenchymal cells; assay: Transformation of umbilical mesenchymal cells into neurons with BME (NF and NeuN immunostaining); assay type: cell-based, human; conditions: 2 mM BME, 72 hours
Text: Neurofilament (NF) is the major cytoskeleton in neurons, which is responsible for adjusting the size, appearance and diameter of dendrites of neurons. Only neurons at the late developmental stage or mature neurons express NF. Immunostaining for NF is utilized to recognize neurons at the late stage.
Neuron-specific nuclear protein (NeuN) is a specific protein existing in the nucleus of neurons in the central nervous system of vertebrates. NeuN binds to DNA in vitro. It is known that NeuN appears earlier than NF during the development of neurons. Therefore, immunostaining for NeuN is utilized to identify neurons at the early stage of transformation.
Umbilical mesenchymal cells obtained in Example 1 were cultured in 10% FBS-DMEM for 72 hours. Two mM BME was added to the culture and the cells continued to be cultured for 72 hours.

[3] = tested on: haematopoietic stem cells of umbilical cord blood; conditions: cultured in 0.001% of β-Mercaptoethanol; cited from earlier work
BMSCs = conditions: in vitro culture of BMSCs; cited from earlier work
[4] = tested on: bone marrow stromal cells; conditions: bone marrow stromal cells treated with 5-azacytidine; cited from earlier work
[5] = tested on: umbilical mesenchymal cells; assay: Cardiac troponin I / F-actin immunocytochemistry after cardiac differentiation; assay type: cell-based, human; conditions: 3 μM 5-azacytidine for 24 hours, then growing medium 1-3 weeks
Method: Umbilical mesenchymal cells obtained in Example 1 were cultured in a cell growing medium of DMEM supplemented with about 4.5 g/L of glucose and about 10% FBS. After the cells have attached to the bottom of the cell culture plate, the cell growing medium was then replaced by a cell differentiating medium, which was prepared by supplementing the cell growing medium with 3 μM 5-azacytidine as a cell differentiating factor. Alternatively, the cell differentiating factor may be directly added to the culture.
The umbilical mesenchymal cells were cultured in the cell differentiating medium for 24 hours. The cell differentiating medium was then replaced by the cell growing medium to prevent intoxication of the cells caused by the long exposure to 5-azacytidine. The differentiated cells were further maintained in the cell growing medium for about 1-3 weeks to ensure the viability and optimal differentiation of the cells. The culture medium was replaced with fresh medium every three days. […]
Next, secondary antibodies conjugated to fluorescence or any visible dyes readily detectable by an optical instrument such as a confocal laser scanning microscope, a fluorescence microscope, or an optical microscope, Rhodamine (TRITC)-conjugated AffiniPure Donkey Anti-Goat IgG (supplied by Jackson ImmunoResearch Lab) were added at a 1:100 dilution to bind the host species of the primary antibodies. […]

SMILES | toxicity [1] | NF expression (immunostaining) [2] | NeuN expression (immunostaining) [2] | transformation of cord blood haematopoietic stem cells [3] | cultured BMSCs induced to differentiate into neurons (BMSCs) | ultrastructure by electron microscopy [4] | F-actin expression, cell attachment pattern [5] | C-troponin I expression ([5]; compared to untreated cells)
OCCS [BME, β-mercaptoethanol] | toxic for proteins | expressed NF | expressed NeuN | transformed into precursors of neural cells | about 80% |  |  | 
Nc1ncn([C@@H]2O[C@H](CO)[C@@H](O)[C@H]2O)c(=O)n1 [cell differentiating factor, 5-azacytidine] |  |  |  |  |  | cardiomyocyte-like ultrastructure | specific cell attachment pattern similar to that of the cardiomyocytes or cardiovascular cells | significant expression of C-troponin I

Reference: patent US20040115804A1, “Cell system for generating somatic cells” (priority 2002, published 2004)
